Measurements reported in BindingDB's records for doi:10.1111/cbdd.12241 (Chengde Medical University, 2014).

The molecules below were run against T1, Glycogen phosphorylase, muscle form (Oryctolagus cuniculus, UniProt P00489) (assay: Inhibition Assay). Details: pH 7.2; 22 °C.
T1 sequence (P00489 whole entry): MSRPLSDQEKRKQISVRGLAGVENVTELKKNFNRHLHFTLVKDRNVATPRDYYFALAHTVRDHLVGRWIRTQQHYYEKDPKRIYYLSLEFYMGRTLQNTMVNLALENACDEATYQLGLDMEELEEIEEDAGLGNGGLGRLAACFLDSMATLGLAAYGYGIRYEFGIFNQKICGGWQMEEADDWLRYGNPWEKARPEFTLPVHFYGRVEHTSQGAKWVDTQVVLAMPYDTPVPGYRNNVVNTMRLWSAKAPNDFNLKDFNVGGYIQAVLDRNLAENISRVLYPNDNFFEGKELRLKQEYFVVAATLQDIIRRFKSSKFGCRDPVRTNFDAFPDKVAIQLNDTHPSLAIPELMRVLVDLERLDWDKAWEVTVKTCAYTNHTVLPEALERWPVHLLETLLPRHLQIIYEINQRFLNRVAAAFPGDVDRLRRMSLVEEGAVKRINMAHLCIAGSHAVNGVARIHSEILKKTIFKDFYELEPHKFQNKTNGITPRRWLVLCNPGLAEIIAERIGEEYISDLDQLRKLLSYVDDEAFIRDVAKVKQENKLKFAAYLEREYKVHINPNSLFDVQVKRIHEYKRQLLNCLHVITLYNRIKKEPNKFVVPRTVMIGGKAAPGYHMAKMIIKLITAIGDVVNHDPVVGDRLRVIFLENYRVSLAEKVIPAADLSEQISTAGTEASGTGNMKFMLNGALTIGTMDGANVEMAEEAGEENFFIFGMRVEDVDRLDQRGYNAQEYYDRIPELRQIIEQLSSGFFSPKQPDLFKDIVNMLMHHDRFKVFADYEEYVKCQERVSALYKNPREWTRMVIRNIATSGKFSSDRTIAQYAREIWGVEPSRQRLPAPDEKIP
Method: Each compound was dissolved in DMSO and diluted at different concentrations. RMGPa was added to 100 µL of buffer (50 mM Hepes pH 7.2, 100 mM KCl, 2.5 mM MgCl2, 0.5 mM glucose-1-phosphate, 1 mg/mL glycogen, and compound in 96-well microplates. Reaction was […] by the addition of 150 µL of 1 M HCl containing 10 mg/mL ammonium molybdate and 0.38 mg/mL malachite green and run for 25 min at 22 C.

SMILES | IC50 [µM]
CCCCCCCCCCCCCCCC(=O)OCc1cn(CC(=O)O[C@H]2CC[C@]3(C)[C@H]4CC=C5[C@@H]6CC(C)(C)CC[C@]6(C(=O)O)CC[C@@]5(C)[C@]4(C)CC[C@H]3C2(C)C)nn1 [3b-[2-(4-palmitoyloxymethyl-1H-1,2,3-triazol-1-yl)acetoxy]olean-12-en-28-oic acid (Compound 8d)] | 221
CCCCCCCCC(=O)OCc1cn(CC(=O)O[C@H]2CC[C@]3(C)[C@H]4CC=C5[C@@H]6CC(C)(C)CC[C@]6(C(=O)O)CC[C@@]5(C)[C@]4(C)CC[C@H]3C2(C)C)nn1 [3b-[2-(4-nonanoyloxymethyl-1H-1,2,3-triazol-1-yl)acetoxy]olean-12-en-28-oic acid (Compound 8a)] | 77.1
CCCCCCCCC(=O)OCc1cn(CC(=O)O[C@H]2CC[C@]3(C)[C@H]4CC=C5[C@@H]6CC(C)(C)CC[C@]6(C(=O)OCc6ccccc6)CC[C@@]5(C)[C@]4(C)CC[C@H]3C2(C)C)nn1 [Benzyl 3b-[2-(4-nonanoyloxymethyl-1H-1,2,3-triazol-1-yl)acetoxy]olean-12-en-28-oate (Compound 7a)] | 80.1
CC1(C)CC[C@]2(C(=O)OCc3ccccc3)CC[C@]3(C)C(=CC[C@@H]4[C@@]5(C)CC[C@H](OC(=O)Cn6cc(COC(=O)Cc7ccc8ccccc8c7)nn6)C(C)(C)[C@@H]5CC[C@]43C)[C@@H]2C1 [Benzyl 3b-{2-[4-(2-naphthalen-2-yl)acetoxymethyl-1H-1,2,3-triazol-1-yl]acetoxy}olean-12-en-28-oate (Compound 7g)] | 23.9
CCCCCCCCCCCCCCCCCC(=O)OCc1cn(CC(=O)O[C@H]2CC[C@]3(C)[C@H]4CC=C5[C@@H]6CC(C)(C)CC[C@]6(C(=O)O)CC[C@@]5(C)[C@]4(C)CC[C@H]3C2(C)C)nn1 [3b-[2-(4-stearoyloxymethyl-1H-1,2,3-triazol-1-yl)acetoxy]olean-12-en-28-oic acid (Compound 8e)] | 11.2
CCCCCCCCCC(=O)OCc1cn(CC(=O)O[C@H]2CC[C@]3(C)[C@H]4CC=C5[C@@H]6CC(C)(C)CC[C@]6(C(=O)OCc6ccccc6)CC[C@@]5(C)[C@]4(C)CC[C@H]3C2(C)C)nn1 [Benzyl 3b-[2-(4-decanoyloxymethyl-1H-1,2,3-triazol-1-yl)acetoxy]olean-12-en-28-oate (Compound 7b)] | 144
CCCCCCCCCC(=O)OCc1cn(CC(=O)O[C@H]2CC[C@]3(C)[C@H]4CC=C5[C@@H]6CC(C)(C)CC[C@]6(C(=O)O)CC[C@@]5(C)[C@]4(C)CC[C@H]3C2(C)C)nn1 [3b-[2-(4-decanoyloxymethyl-1H-1,2,3-triazol-1-yl)acetoxy]olean-12-en-28-oic acid (Compound 8b)] | 25.6
CCCCCCCCCCCC(=O)OCc1cn(CC(=O)O[C@H]2CC[C@]3(C)[C@H]4CC=C5[C@@H]6CC(C)(C)CC[C@]6(C(=O)O)CC[C@@]5(C)[C@]4(C)CC[C@H]3C2(C)C)nn1 [3b-[2-(4-dodecanoyloxymethyl-1H-1,2,3-triazol-1-yl)acetoxy]olean-12-en-28-oic acid (Compound 8c)] | 8.4
CC1(C)CC[C@]2(C(=O)OCc3ccccc3)CC[C@]3(C)C(=CC[C@@H]4[C@@]5(C)CC[C@H](O)C(C)(C)[C@@H]5CC[C@]43C)[C@@H]2C1 [benzyl (4aS,6aS,6bR,8aR,10S,12aR,12bR,14bS)-10-hydroxy-2,2,6a,6b,9,9,12a-heptamethyl-1,3,4,5,6,7,8,8a,10,11,12,12b,13,14b-tetradecahydropicene-4a-carboxylate (Compound 4)] | 461
COc1ccc(C(=O)OCc2cn(CC(=O)O[C@H]3CC[C@]4(C)[C@H]5CC=C6[C@@H]7CC(C)(C)CC[C@]7(C(=O)O)CC[C@@]6(C)[C@]5(C)CC[C@H]4C3(C)C)nn2)cc1 [3b-{2-[4-(4-methoxybenzoyloxy)methyl-1H-1,2,3-triazol-1-yl]acetoxy}olean-12-en-28-oic acid (Compound 8f)] | 34.6
COc1ccc(C(=O)OCc2cn(CC(=O)O[C@H]3CC[C@]4(C)[C@H]5CC=C6[C@@H]7CC(C)(C)CC[C@]7(C(=O)OCc7ccccc7)CC[C@@]6(C)[C@]5(C)CC[C@H]4C3(C)C)nn2)cc1 [Benzyl 3b-{2-[4-(4-methoxybenzoyloxy)methyl-1H-1,2,3-triazol-1-yl]acetoxy}olean-12-en-28-oate (Compound 7f)] | 38.9
